These results are taken from US9346741B2, “Polyamine transport selective therapeutic agents with enhanced stability” (University of Central Florida Research Foundation, Inc., priority 2012, dated 2016).

Molecules are shown by their SMILES. Like-named read-outs stand apart in the source and are kept apart here.

Series [1] has as its system MALME-3 cells. The series is described as follows: Spermidine rescue experiments in MALME-3 cells. The following applies: dosed near the IC50 value; increasing spermidine. It is filed as cell-based, human. Here is the method:
(§1) In order to validate that these drugs were toxic due to their use of the polyamine transport system, spermidine rescue experiments were conducted. Spermidine is a native polyamine and uses the PTS for cell entry. High concentrations of spermidine should outcompete the PTS-targeting drugs for cell entry. In this regard, spermidine when dosed at a non-toxic concentration should rescue the cells from the toxic effects of the PTS targeting agents. […] Both the anthryl and naphthyl systems when dosed at their IC50 concentrations gave >92% viability at 10 μM spermidine validating their use of the PTS. Rescue was observed from the initial 50% viability to >92% viability after co-dosing 10 μM spermidine.
(§2) As stated above, in an effort to determine if the cytotoxicities seen for compounds 6-8 were polyamine transport related, MALME-3M and MALME-3 were dosed near the IC50 value of each drug. These cells were also treated with increasing amounts of spermidine to see if it could outcompete compounds 6-8 for cellular entry and thus rescue the cells. […] This supports the premise that these compounds gain access to these cells primarily via the PTS. […] Since the viability of MALME-3M cells could be partially rescued by spermidine, compounds 8a and 8b may gain access via the PTS and via non-PTS related pathway(s).

In a further series the test system is CHO-MG* cells. The series is described as follows: Cytotoxicity IC50 determination (MTS) in polyamine-transport-deficient CHO-MG* cells. The series is classed as cell-based, Chinese hamster. The following applies: Cricetulus griseus, CHO-MG, 48 h at 37° C. From the text: (§3) CHO cells were chosen along with a mutant cell line (CHO-MG*) to comment on how the synthetic conjugates gain access to the cells.^2c-e, 6 As discussed earlier, the CHO-MG cell line is polyamine-transport deficient and represents a model for alternative modes of entry (other than PTS) including passive diffusion or use of another transporter. The CHO cell line on the other hand, represents cells with high polyamine transport activity.^7, 10c A comparison of toxicity in these two CHO cell lines allowed for a screen that would detect selective use of the polyamine transporter. This is seen where high utilization of the PTS would be very toxic to CHO cells, however, there would not be the same level of toxicity found in CHO-MG cells.^2c-e, 6 Ultimately, a CHO-MG/CHO IC50 can be determined where a high ratio would be achieved for highly PTS selective compounds.
(§4) CHO and CHO-MG cells were grown in RPMI 1640 medium supplemented with 10% fetal calf serum and 1% penicillin/streptomycin. Note: the media must contain L-proline (2 μg/mL) for proper growth of the CHO-MG cells. MALME-3M cells were grown in RPMI 1640 medium supplemented with 10% FBS and 1% penicillin/streptomycin. […] Cells in early to mid-log phase were used.
(§5) Cell growth was assayed in sterile 96-well microtiter plates (Costar 3599, Corning, N.Y., USA). CHO and CHO-MG* cells were plated at 10,000 cells/mL. MALME-3M and MALME-3 cells were plated at 5,000 cells/mL. Drug solutions (10 μL per well) of appropriate concentration were added after an overnight incubation for each CHO cell line (90 μL). 48 h MALME-3M experiments were conducted using 10% Nu-Serum IV, and 96 h MALME-3M and MALME-3 experiments were conducted using 10% FBS. After exposure to the drug for 48 h (CHO, CHO-MG*, and MALME-3M) or 96 h (MALME-3M and MALME-3), cell growth was determined by measuring formazan
(§6) formation from 3-(4,5-dimethylthiazol-2-yl)-5-(3-carboxymethoxyphenyl)-2-(4-sulphenyl)-2H-tetrazolium) inner salt (MTS) using a SynergyMx Biotek microplate reader for absorbance ([…]) measurements.^24

Series [2] concerns MALME-3M cells. The series is described as follows: Cytotoxicity IC50 determination (MTS) in MALME-3M cells. The series is classed as cell-based, human. The following applies: Homo sapiens, Malme-3M. Here is the method:
Armed with this insight, compounds 5a-8b were evaluated in the MALME-3M (melanoma) cell line and its non-cancerous counterpart MALME-3 obtained originally from the same patient. These matched cell lines provided a method to assess PTS selectivity for the cancer line (MALME-3M) over the non-cancerous cell line (MALME-3). […]
(§7) CHO and CHO-MG cells were grown in RPMI 1640 medium supplemented with 10% fetal calf serum and 1% penicillin/streptomycin. Note: the media must contain L-proline (2 μg/mL) for proper growth of the CHO-MG cells. MALME-3M cells were grown in RPMI 1640 medium supplemented with 10% FBS and 1% penicillin/streptomycin. All cells were grown at 37° C. under a humidified 5% CO2 atmosphere Aminoguanidine (1 mM) was added to the growth medium to prevent oxidation of the drugs by the enzyme (bovine serum amine oxidase) present in calf serum. Cells in early to mid-log phase were used.
as §5, §6

In series [3] the test system is MALME-3M (melanoma) vs MALME-3 (normal) cells. The series is described as follows: MALME-3/MALME-3M IC50 ratio, a measure of selectivity. Conditions: 96 h; 1 mM AG. It is filed as cell-based, human. From the text:
These matched cell lines provided a method to assess PTS selectivity for the cancer line (MALME-3M) over the non-cancerous cell line (MALME-3).

The next series relates to CHO cells. Briefly: cells. It is filed as cell-based. Conditions: Cricetulus griseus, CHO, 48 h at 37° C.
Source text: as §3, §4, §5, §6

Series [4] relates to 60 human cancer cell lines. The series is described as follows: NCI 60 cell-line screen. It is filed as cell-based. Conditions: 5-dose assay.
The subject of series [5] is MALME-3M cells. The series is described as follows: Spermidine rescue experiments in MALME-3M cells. The following applies: drug at its IC50 concentration, co-dosed 10 μM spermidine; cell line not given. It is filed as cell-based, human. Here is the method: as §1, §2
Series [6] concerns MALME-3 cells. The series is described as follows: Cytotoxicity IC50 determination (MTS) in MALME-3 cells. It is filed as cell-based, human. The following applies: Homo sapiens, MALME-3; 96 h at 37° C.; 1 mM AG; 10% FBS. On the procedure: Armed with this insight, compounds 5a-8b were evaluated in the MALME-3M (melanoma) cell line and its non-cancerous counterpart MALME-3 obtained originally from the same patient. These matched cell lines provided a method to assess PTS selectivity for the cancer line (MALME-3M) over the non-cancerous cell line (MALME-3).
as §7, §5, §6

Series [7] concerns 60 human cancer cell lines. The series is described as follows: NCI 60 cell-line screen. The series is classed as cell-based. The following applies: 10 μM; 48 h. On the procedure:
Once compounds 6a-b, 7a-b, and 8a-8b were evaluated in CHO and CHO-MG*, these compounds were sent to the National Cancer institute (NCI) to conduct its 60 cell-line screen to determine if these compounds could also be potent anti-cancer agents for human cancer cell lines. […] As shown in FIGS. 2A-2C, dose response curves were generated based upon the 60 cell-line screen at different molar concentrations of each PTS targeting agent 6b, 7b, and 8b.
To generate FIGS. 2A-2C, the respective drug was dosed at 10 μM into each human cancer cell line and cell viability was assessed after a 48 h incubation at 37° C. in an environment of 5% CO2, 95% air and 100% relative humidity. A more descriptive methodology can be found at the NCI website: http://dtp.nci.nih.gov/branches/btb/ivclsp.html. Cell lines which gave bar graphs which extend to the right of the central line were more sensitive to the drug than cell lines which extended to the left of the center line.

Series [8] has as its system polyamine transport system (PTS), CHO-MG* vs CHO cells. Briefly: CHO-MG*/CHO IC50 ratio, a measure of PTS selectivity. The series is classed as cell-based, Chinese hamster. The following applies: 48 h.
Source text: Compounds with high CHO-MG/CHO IC50 ratios are considered PTS selective.
as §3

As usually defined, the viability is the share of living cells, or the viability signal relative to a control.

On to `CNCCCCNCCCCNCc1ccc(CNCCCCNCCCCNC)cc1` [Compound 8b, N1,N1′-(1,4-Phenylenebis(methylene))bis(N4-(4-(methylamino)butyl)butane-1,4-diamine)], for which the “rescue by exogenous spermidine in MALME-3” value in the series with MALME-3 cells [1] is listed as “complete rescue”. For the same compound, the IC50 with CHO-MG* cells (1 mM AG 24 h prior to drug addition, read-out: CHO-MG* IC50 (μM) w/AG) was 51.5 µM; in the series with CHO-MG* cells (without AG, read-out: CHO-MG* IC50 (μM) w/o AG), 54 µM; with MALME-3M cells [2] (48 h at 37° C., 1 mM AG, 10% Nu-Serum IV, read-out: MALME-3M IC50 (μM) w/ AG) it was 0.007 µM; with MALME-3M cells [2] (48 h at 37° C., without AG, 10% Nu-Serum IV, read-out: MALME-3M IC50 (μM) w/o AG) it was 0.007 µM; in the series on MALME-3M cells [2] (96 h at 37° C., 1 mM AG, 10% FBS, read-out: MALME-3M IC50) it was 0.01 µM; in the series on CHO cells (1 mM AG 24 h prior to drug addition, read-out: CHO IC50 (μM) w/AG), 0.03 µM. For the same compound, the IC50 is 0.041 µM in the series on CHO cells (without AG, read-out: CHO IC50 (μM) w/o AG) and 20 nM in the series on MALME-3 cells [6]. The “MALME-3/MALME-3M IC50 ratio” value in series [3] is given as 2. Moreover, the “NCI 5-dose assay, MALME-3M cell line” value in series [4] is recorded as “dose dependent response”. The “viability at 10 μM spermidine” value with MALME-3M cells [5] is given as 75%. For the same compound, the “effect on breast cancer cell lines in the NCI 60 cell-line screen” value in [7] is reported as “exhibited an anti-proliferation effect in breast cancer cell lines, particularly the T-47D cell line”. The “effect on melanoma cell lines in the NCI 60 cell-line screen” value in series [7] is reported as “inhibited the proliferation of melanoma cell lines, particularly the MALME-3M cell line”. Further, the “IC50 ratio w/AG (CHO-MG*/CHO)” value in [8] (with 1 mM AG) is 1715. In addition, the “IC50 ratio w/o AG (CHO-MG*/CHO)” value in series [8] (without AG) came out at 1316.
